Measurements as given in US20120071501A1, “USE OF EXTRACTS OF THE GENUS CIMICIFUGA AS ORGANOSELECTIVE MEDICINES FOR TREATING DISEASES OF THE GENITOURINARY TRACT CAUSED BY SEX HORMONES” (Bionorica AG, priority 2001, published 2012).

Experiments:
rat prostate = assay: In-vivo experiments in the rat prostate in the whole-body model; settings: castrated rat
IGF1 = IGF1 gene expression in the prostate of castrated male rats; format: in vivo, rat
[1] = tested on: estrogen receptor of the alpha-subtype; assay: Gene expression of estrogen receptor alpha-subtype in the prostate of male castrated rat; format: in vivo
estrogen receptor-alpha = assay: Expression of estrogen receptor-alpha in the urinary bladder; format: in vivo, rat; settings: ovarectomized rats
Excerpt: In the bladder both the estrogen receptor ER-alpha and ER-beta are expressed.

estrogen receptor-beta = assay: Gene expression of estrogen receptor-beta in the prostate of male castrated rat; format: in vivo
[2] = tested on: urinary bladder of ovarectomized rats; assay: Differential bladder tonus (bladder elasticity) of ovarectomized rats; format: in vivo, rat
Description: Following a three-month treatment of ovarectomized rats with Cimicifuga racemosa extract, the maximum pressure in the urinary bladder [in mm Hg] and the minimum pressure [in mm Hg] following relaxation of the bladder were determined by instillation of 1 ml of physiological saline solution.

Q: For C[C@]12CC[C@H]3[C@@H](CCC4=CC(=O)CC[C@@]43C)[C@@H]1CC[C@@H]2O [testosterone], which “prostate regression induced by castration” value (rat prostate) is on record?
A: The value was “could be antagonized”.

Q: And the “gene expression of the growth factor IGF1 in the prostate” value (IGF1)?
A: The value was “regulated up”.

Q: C[C@]12CC[C@@H]3c4ccc(O)cc4CC[C@H]3[C@@H]1CC[C@@H]2O [estradiol, 17β-estradiol] was tested. Which “gene expression of the estrogen receptor of the alpha-subtype in the prostate” value [1] did it give?
A: The value was “significantly inhibit”.

Q: What about the “expression of the estrogen receptor-alpha in the urinary bladder” value (estrogen receptor-alpha) of the same compound?
A: Its value is “regulate down”.

Q: What about the “gene expression of the estrogen receptor-beta in the prostate” value (estrogen receptor-beta) of the same compound?
A: Its value is “without having an effect”.

Q: What about the “differential pressure between maximum and minimum pressure (bladder elasticity)” value ([2]; three-month treatment, instillation of 1 ml physiological saline, in comparison with placebo controls) of the same compound?
A: The value was “most effective substance”.

Q: Which “differential pressure between maximum and minimum pressure (bladder elasticity)” value ([2]; highest Cimicifuga dose 400 mg/kg/d, compared with Raloxifen) does the source give for O=C(c1ccc(OCN2CCCCC2)cc1)c1c(-c2ccc(O)cc2)sc2cc(O)ccc12 [Raloxifen] here?
A: Its value is “comparable”.
